# According to publication doi:10.1101/2020.10.22.350827v1 (biorxiv, 2020):
# Where a chain is given by its changes, count along the chain named.
# Tests used:
# [1] = target: T1, Nluc-A1R (adenosine A1 receptor) (Homo sapiens, UniProt P30542, I175A); assay: NanoBRET competition binding, live HEK […] cells; format: cell-based
# T1 sequence (P30542 1-326 I175A): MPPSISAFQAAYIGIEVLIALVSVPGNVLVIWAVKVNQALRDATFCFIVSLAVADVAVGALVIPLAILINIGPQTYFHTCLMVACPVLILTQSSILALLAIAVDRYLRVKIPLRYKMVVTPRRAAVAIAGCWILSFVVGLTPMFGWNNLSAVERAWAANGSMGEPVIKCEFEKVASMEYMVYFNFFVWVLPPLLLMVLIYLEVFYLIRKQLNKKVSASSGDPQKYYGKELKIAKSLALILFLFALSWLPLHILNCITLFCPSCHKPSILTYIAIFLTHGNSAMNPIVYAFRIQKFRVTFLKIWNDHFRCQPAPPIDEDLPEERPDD
# [2] = target: T2, Nluc-A1R (adenosine A1 receptor) (Homo sapiens, UniProt P30542, L253A); assay: NanoBRET competition binding, live HEK […] cells; format: cell-based
# T2 sequence (P30542 1-326 L253A): T1 sequence (P30542 1-326 I175A) with A175I, L253A
# [3] = target: T3, Nluc-A1R (adenosine A1 receptor) (Homo sapiens, UniProt P30542, Y271A); assay: NanoBRET competition binding, live HEK […] cells; format: cell-based
# T3 sequence (P30542 1-326 Y271A): T1 sequence (P30542 1-326 I175A) with A175I, Y271A
# [4] = target: T4, Nluc-A1R (adenosine A1 receptor) L258A (Homo sapiens, UniProt P30542, L258A); assay: cell-based; parameters: species or system HEK 293
# T4 sequence (P30542 1-326 L258A): T1 sequence (P30542 1-326 I175A) with A175I, L258A
# [5] = target: T5, Nluc-A1R (adenosine A1 receptor) N70A (Homo sapiens, UniProt P30542, N70A); assay: cell-based; parameters: species or system HEK 293
# T5 sequence (P30542 1-326 N70A): T1 sequence (P30542 1-326 I175A) with N70A, A175I
# [6] = target: T6, Nluc-A1R (adenosine A1 receptor) K265A (Homo sapiens, UniProt P30542, K265A); assay: cell-based; parameters: species or system HEK 293
# T6 sequence (P30542 1-326 K265A): T1 sequence (P30542 1-326 I175A) with A175I, K265A
# [7] = target: T7, Nluc-A1R (adenosine A1 receptor) L253F (Homo sapiens, UniProt P30542, L253F); assay: cell-based; parameters: species or system HEK 293
# T7 sequence (P30542 1-326 L253F): T1 sequence (P30542 1-326 I175A) with A175I, L253F
smiles,measurement,setting,value
"OC[C@H]1O[C@@H](n2cnc3c(N[C@@H]4CCC[C@H]4O)ncnc32)[C@H](O)[C@@H]1O [compound 6, HOCPA]",Ki,[1],2190 nM
same,Ki,[2],3240 nM
same,Ki,[3],7080 nM
same,Ki,[4],1410 nM
same,Ki,[5],891 nM
same,Ki,[6],977 nM
same,Ki,[7],1620 nM
